In US20040127395A1 (priority 2002, published 2004):

Columns and labels:
[1] = target: human histamine H4 receptor (Homo sapiens, UniProt Q9H3N8)
human eosinophils = test: Histamine-induced eosinophil shape change (GAFS); format: cell-based; details: for effect on histamine-induced eosinophil shape change / Fold Change: antagonist 10 μM; for IC50: Eosinophil, human eosinophils, read-out: IC50 for inhibition of histamine-induced eosinophil shape change; for Fold Change: eosinophil shape change
Method: Human granulocytes were isolated from human blood by a Ficoll gradient. The red blood cells were lysed with 5-10× Qiagen lysis buffer at room temperature for 5-7 min. Granulocytes were harvested and washed once with FACS buffer. The cells were resuspended at a density of 2×10^6 cells/mL in reaction buffer. […] Ten minutes later, the cells were transferred to ice and fixed with 250 μL of ice-cold fixative buffer (2% formaldehyde) for 1 min.

[2] = tested on: mast cells in the mouse trachea; test: Histamine-induced accumulation of mast cells in the mouse trachea in vivo
[3] = tested on: mouse bone marrow-derived mast cells; test: Histamine-induced mast cell chemotaxis in vitro (transwell); format: cell-based
Method: Mast cells were differentiated from bone marrow derived from BALB/c or C57bl/6j mice. Mice were sacrificed by asphyxiation under 95% CO2 and femurs were removed. Bone marrow was aseptically isolated from the femurs. The cells (5×10^5/mL) were cultured at 37° C. with 5% CO2 in culture medium consisting of RPMI with 10% FCS, 0.1 mM non-essential amino acids, 50 μg/mL penicillin/streptomycin and 20% conditioned WEHI-3 medium. Conditioned WEHI-3 medium was prepared from WEHI-3 cells (ATCC), which were cultured in Iscoves Dulbeccos medium with 10% FCS, 4 mM L-glutamine, 1.5 g/L sodium carbonate, 0.05 μM beta-mercaptoethanol and 50 μg/mL penicillin/streptomycin. The filtered supernatant was used as the conditioned WEHI-3 medium. After 16 h in culture, the bone marrow cells were transferred to a new flask. The medium was refreshed once per week. After four weeks, the cells were tested by flow cytometry for IgE receptor and CD117 (c-kit) expression. Mast cells were incubated with anti-DNP IgE (ICN Pharmaceuticals, Costa Mesa, Calif.) or vehicle for 30 min, followed by FITC labeled anti-IgE (Pharmingen) or FITC labeled CD117 (Pharmingen) for 30 min on ice. The cultured mast cells consisted of a homogeneous population which was >99% IgE receptor positive and >99% CD117 positive. Mast cells of four to eight weeks culture time were used for experiments.
Transwells (Costar, Cambridge, Mass.) of a pore size of […] were coated with 100 μL of 100 ng/mL human fibronectin (Sigma) for 2 h at room temperature. […] Mast cells (2×10^5/well) were added to the top chamber. The plates were incubated for 3 h at 37° C. Transwells were removed and the number of cells in the bottom chamber was counted for 60 sec using a flow cytometer.

[4] = tested on: ovalbumin-sensitized mice; test: Ovalbumin-induced lung inflammation model, cell counts in BAL fluid; format: in vivo, mouse; details: for maximum reduction in the number of eosinophils: BAL fluid
[5] = tested on: ovalbumin-sensitized mice; test: Airway hyper-responsiveness to methacholine in ovalbumin-sensitized mice (whole body plethysmography); format: in vivo, mouse; details: any of the first three doses, FIG. 7
Method: Mice (n=8 per group) were sensitized by intraperitoneal injection of ovalbumin/alum on Days 0 and 14. On each of Days 21 through 24, mice were pretreated for 15 min with vehicle or with (5-chloro-1H-benzoimidazol-2-yl)-(4-methyl-piperazin-1-yl)-methanone prior to a 20 min challenge with PBS or ovalbumin.
In one experiment, (5-chloro-1H-benzoimidazol-2-yl)-(4-methyl-piperazin-1-yl)-methanone was administered p.o. at 5, 20, or 50 mg/kg. In a second experiment, (5-chloro-1H-benzoimidazol-2-yl)-(4-methyl-piperazin-1-yl)-methanone was administered p.o. at 0.5, 2, or 5 mg/kg.
Airway hyper-responsiveness in ovalbumin-sensitized animals was monitored in conscious mice by whole body plethysmography (Buxco). Mice (n=8 per group) were treated as described above for the cell measurements.

[6] = p.o., all doses of 5 mg/kg and greater, FIG. 5
[7] = p.o., highest dose tested (50 mg/kg)

Sequence of human histamine H4 receptor (Q9H3N8 whole entry): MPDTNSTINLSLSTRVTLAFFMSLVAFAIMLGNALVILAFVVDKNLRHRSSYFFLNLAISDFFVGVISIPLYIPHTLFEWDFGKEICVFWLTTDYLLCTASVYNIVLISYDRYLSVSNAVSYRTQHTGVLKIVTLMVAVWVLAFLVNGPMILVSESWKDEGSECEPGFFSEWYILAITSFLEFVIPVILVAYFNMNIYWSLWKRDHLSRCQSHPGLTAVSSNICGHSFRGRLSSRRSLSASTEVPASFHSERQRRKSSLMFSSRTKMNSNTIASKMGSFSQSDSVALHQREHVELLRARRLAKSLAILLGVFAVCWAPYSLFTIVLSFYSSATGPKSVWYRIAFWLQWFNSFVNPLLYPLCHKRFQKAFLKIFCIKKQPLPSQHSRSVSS

**Q.** For `CN1CCN(C(=O)c2cc3cc(Br)ccc3[nH]2)CC1` [(5-Bromo-1H-indol-2-yl)-(4-methyl-piperazin-1-yl)-methanone], which Ki [1] is on record?
**A.** 8 nM

**Q.** `CN(C)CCOC(c1ccccc1)c1ccccc1` [diphenhydramine] was tested. Which “effect on histamine-induced eosinophil shape change” value (human eosinophils) did it give?
**A.** did not alter

**Q.** `S=C(NC1CCCCC1)N1CCC(c2cnc[nH]2)CC1` [Thioperamide] was tested. Which IC50 (human eosinophils) did it give?
**A.** 1500 nM

**Q.** Which “effect on histamine-induced eosinophil shape change” value (human eosinophils) does the source give for `CNC(=C[N+](=O)[O-])NCCSCc1ccc(CN(C)C)o1` [ranatidine] here?
**A.** did not alter

**Q.** And the “Fold Change” value (human eosinophils; histamine 0 μM)?
**A.** 1.00

**Q.** What about the “Fold Change” value (human eosinophils; histamine 0.01 μM) of the same compound?
**A.** 1.04

**Q.** And the “Fold Change” value (human eosinophils; histamine 0.1 μM)?
**A.** 1.21

**Q.** What about the “Fold Change” value (human eosinophils; histamine 1 μM) of the same compound?
**A.** 1.49

**Q.** What about the “Fold Change” value (human eosinophils; histamine 10 μM) of the same compound?
**A.** 1.64

**Q.** What does the source list for `NCCc1c[nH]cn1` [Histamine, reference compound]?
**A.** shape change in eosinophils (human eosinophils; histamine as stimulus): induces a dose-dependent shape change; migration of mast cells in the trachea ([2]; 0.1 M histamine aerosol, 20 min on 2 consecutive days): induces a migration of mast cells into the sub-epithelial space; migrated mast cells in the lower chamber ([3]; histamine in lower chamber (1.25-20 μM), FIG. 1): dose-dependent increase in migrated mast cells

**Q.** With `CN1CCN(C(=O)c2nc3cc(Cl)ccc3[nH]2)CC1` [(5-Chloro-1H-benzoimidazol-2-yl)-(4-methyl-piperazin-1-yl)-methanone] as the compound, how does the “macrophages in BAL fluid” value ([4]; p.o., 5 mg/kg, second experiment) read?
**A.** reduction

**Q.** And the “maximum reduction in the number of eosinophils” value ([4]; p.o.)?
**A.** 50%

**Q.** And the “number of eosinophils in BAL fluid” value [4, 6]?
**A.** significantly reduced

**Q.** What about the “total cell number in BAL fluid” value [4, 6] of the same compound?
**A.** significantly reduced

**Q.** And the “number of macrophages in BAL fluid” value [4, 7]?
**A.** reduction

**Q.** What about the “number of neutrophils in BAL fluid” value [4, 7] of the same compound?
**A.** increase

**Q.** What about the “number of lymphocytes in BAL fluid” value ([4]; p.o., same doses which provided maximum reduction in eosinophils) of the same compound?
**A.** significantly reduced

**Q.** And the inhibition at 1 µM ([3]; Mus musculus, Mast cell)?
**A.** 84%

**Q.** What about the inhibition at 10 µM ([3]; Mus musculus, Mast cell) of the same compound?
**A.** 97%

**Q.** And the “airway hyper-responsiveness to methacholine (Penh)” value [5]?
**A.** reduced

**Q.** With `CN1CCN(C(=O)c2cc3cc(Cl)ccc3[nH]2)CC1` [(5-Chloro-1H-indol-2-yl)-(4-methyl-piperazin-1-yl)-methanone] as the compound, how does the “number of eosinophils in BAL fluid” value ([4]; s.c., 60 and 100 mg/kg, FIG. 6) read?
**A.** significantly reduced

**Q.** And the “total cell number in BAL fluid” value ([4]; s.c., 60 and 100 mg/kg, FIG. 6)?
**A.** significantly reduced

**Q.** And the “maximum reduction in the number of eosinophils” value ([4]; s.c.)?
**A.** 50%

**Q.** And the “number of lymphocytes in BAL fluid” value ([4]; s.c., same doses that provided reduction in eosinophils)?
**A.** significantly reduced

**Q.** What about the IC50 (human eosinophils) of the same compound?
**A.** 270 nM

**Q.** And the “histamine-induced migration of mast cells into the sub-epithelial space” value ([2]; 20 mg/kg subcutaneous, 15 min prior to each histamine aerosol, FIG. 4)?
**A.** blocked
